Common to all, as to assay: NCI tumour cell line growth inhibition, 48 h
Assay [1] deals with T-47D breast.
Assay [2] has as its system M14 melanoma.
Assay [3] deals with SF-295 CNS.
Assay [4] relates to HL-60(TB) leukemia.
Assay [5] concerns MDA-N.
Assay [6] deals with IGROV1 ovarian.
Assay [7] has as its system UACC-257 melanoma.
Assay [8] deals with MALME-3M melanoma.
For assay [9], the system named is SK-MEL-5 melanoma.

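Growth conditions: 96-well plates. Treatment: test compound, 48 hours, 5 concentrations. Analysis: linear interpolation between bracketing concentrations; unreached endpoints set to highest concentration. TGI denotes the concentration required for complete inhibition of growth.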 Where a SMILES comes first, the peptide text is derived from it. Side-chain parts run from the residue outwards. The star is where a group is joined. Cbz = O=C(OCc1ccccc1)*; Boc = CC(C)(C)OC(=O)*

For `CC(=O)c1ccc2c3c1O[C@H]1c4[nH]c5ccccc5c4C[C@@]4(O)[C@@H](C2)N(CC2CC2)CC[C@]314`, the TGI in assay [1] came to 44 µM; in assay [2], 31.3 µM; in [3], 29 µM; in [4] it was 37 µM; in assay [5], 34.6 µM; in assay [6], 30.1 µM. In addition, the values for the TGI in assay [7], in assay [8] and in assay [9] were 30.7 µM, 36.3 µM and 31.8 µM, respectively.
Regarding `CC1(C)CN=CC(C)(OCc2ccccc2)C(=O)NC(C)(C)CN=CC(C)(OCc2ccccc2)C(=O)N1` (stereo unspecified), the TGI in assay [1], in [2], in [3], in assay [4], in [5] and in assay [6] was above 10 µM throughout. Also, the TGI in assay [7] and in [9] was above 10 µM in each case.
`COc1ccc(C2=NNC(c3cc4cc(Br)ccc4nc3Cl)C2)cc1` (stereo unspecified): the TGI in assay [1] is above 25 µM; in [2], above 25 µM; in [4], 12.1 µM; in [5], 17.8 µM; in [6], above 25 µM; in [7] it was above 25 µM.
Regarding `O=c1c2cc(I)ccc2nc(SCc2nnco2)n1Cc1ccccc1`, the TGI in assay [1] was above 100 µM; in assay [2] it was above 100 µM; in assay [3], above 100 µM; in assay [4] it was 35.4 µM; in assay [5] it was above 100 µM; in [6], above 100 µM. Further, the TGI in [7] and in assay [9] was above 100 µM in each case.
As for `C[C@]12CC[C@H](O)CC1=CC[C@@H]1[C@@H]2CC[C@]2(C)C(=O)/C(=C/c3ccc([N+](=O)[O-])cc3)C[C@@H]12`, the TGI is 61.6 µM in assay [1]; above 100 µM in assay [2]; 20.6 µM in assay [3]; above 100 µM in assay [4]; above 100 µM in [5]; 21.8 µM in assay [6]. Also, the TGI in [7] is 56 µM; in [8], 53.7 µM; in assay [9] it was 43.5 µM.
For the compound `C=CCOCn1ccc(N)nc1=O`, the TGI in assay [1], in [2], in [3], in assay [4], in [5] and in [6] was above 100 µM throughout. The TGI in assay [7], in assay [8] and in [9] was above 100 µM throughout.
As for `CCOC(=O)C(NC(=O)CC)(Nc1ccc(S(=O)(=O)Nc2ccc(OC)nn2)cc1)C(F)(F)F` (stereo unspecified), the TGI in assay [1], in assay [2], in assay [3], in assay [4], in assay [5] and in assay [6] was above 100 µM throughout. The TGI in assay [7], in assay [8] and in assay [9] was above 100 µM in each case.
On to `CCC(=O)N1C(=O)C(CC)(CC)C(=O)N1C(=O)CC`, for which the TGI in [1], in [2], in assay [3], in assay [4], in assay [5] and in assay [6] was above 100 µM each time. Also, the TGI in [7], in [8] and in [9] was above 100 µM throughout.
Regarding `CCN(CC)C1Oc2cc3c(cc2C(c2cccc(OC)c2O)C1C)OCO3` (stereo unspecified), the TGI in assay [1] was above 86 µM; in assay [2], 12.6 µM; in assay [3], 15.4 µM; in assay [4] it was 7.18 µM; in [5] it was 5.82 µM; in [6] it was above 56 µM. The results for the TGI in [7], in assay [8] and in assay [9] were above 50.4 µM, 21.7 µM and 13.6 µM, respectively.
As to `OC1(c2ccc(Cl)cc2)c2c(c3ccccc3c3ccccc23)C2=NCCN21` (stereo unspecified), the TGI in assay [1] is above 100 µM; in assay [2], 27 µM; in assay [3], 28.1 µM; in assay [4], above 100 µM; in assay [5] it was 51.1 µM; in [6], 18.2 µM. Moreover, the TGI in assay [7] is 49.7 µM; in assay [8], 40.1 µM; in [9], above 100 µM.
For the compound `NC1=Nc2ccccc2Sc2nc3ccccc3n21`, the TGI was above 100 µM in assay [1]; 82.4 µM in assay [2]; above 100 µM in [3]; 6.49 µM in assay [4]; above 100 µM in assay [5]; above 100 µM in assay [6]. For the same compound, the TGI in assay [7], in [8] and in [9] was above 100 µM each time.
As for `Cn1c(COC(=O)NC2CCCCC2)c(COC(=O)NC2CCCCC2)c2ccc3cc(C=O)ccc3c21`, the TGI in assay [1], in assay [2], in assay [3], in assay [4], in [5] and in [6] was above 100 µM throughout. Moreover, the TGI in assay [7], in [8] and in [9] was above 100 µM in each case.
Take `CO[C@]12CC(=O)C3(C(C[C@H]4CC5CC[C@H]6C[C@@H](OC(C)=O)CC[C@]6(OC(C)=O)C5C[C@@]43C)C1)C1C[C@H]3[C@@H]4CC[C@H]5C[C@@H](OC(C)=O)CC[C@]5(OC(C)=O)[C@H]4CC[C@]3(C)C12` (stereo partly specified): the TGI in assay [1], in assay [2], in assay [3], in [5], in assay [6] and in assay [7] was above 100 µM each time. Further, the TGI in assay [8] and in assay [9] was above 100 µM throughout.
On to `COc1cc(C2c3cc(OC)c(OC)c(O)c3C(=O)C3CCC(=O)N32)cc(OC)c1OC` (stereo unspecified), for which the TGI in assay [1] is above 100 µM; in [2], above 100 µM; in assay [3], above 100 µM; in [4] it was above 100 µM; in assay [5], 34.5 µM; in assay [6] it was above 100 µM. Moreover, the TGI in assay [7] and in assay [9] was above 100 µM in each case.
Regarding `Cc1c2cccc-2c(OCCOC(=O)n2ccnc2)cc2c1[nH]c1ccccc12`, the TGI was found to be 8.15 µM in assay [1]; 10.5 µM in [2]; 10.9 µM in assay [3]; 5.46 µM in assay [4]; 17.5 µM in assay [5]; 6.23 µM in assay [6]. For the same compound, the TGI in assay [7] stood at 6.24 µM; in assay [8], 7.61 µM; in [9], 5.68 µM.
Take `CN(C)C=NCC(O)c1ccccc1` (stereo unspecified): the TGI in [1], in assay [2], in [4], in assay [5], in [6] and in assay [8] was above 100 µM each time. For the same compound, in assay [9], the TGI was above 100 µM.
Regarding `COc1cc(S(=O)(=O)Nc2ccc(-c3csc(N4C(=O)C(C)SC4c4ccccc4)n3)cc2)ccc1Cl` (stereo unspecified), the TGI in assay [1] is 54.2 µM; in assay [2] it was above 100 µM; in assay [4] it was 47.7 µM; in [5], above 100 µM; in assay [6] it was above 100 µM; in assay [7] it was above 100 µM. The TGI in assay [8] and in [9] was above 100 µM throughout.
For `O=C(N[C@H]1CCC[C@H]1C(=O)Nc1ccc(C(F)(F)F)cc1)OCc1ccccc1`, the TGI in assay [1], in assay [2], in assay [3], in assay [4], in assay [5] and in [6] was above 100 µM throughout. The TGI in assay [7], in assay [8] and in [9] was above 100 µM each time.
With `COc1ccc(N2C(=O)C3c4[nH]c5ccccc5c4C4c5ccccc5CC4C3C2=O)cc1` (stereo unspecified), the TGI in [1], in assay [2], in [3], in assay [4], in assay [5] and in assay [6] was above 100 µM throughout. Moreover, the TGI in [7] and in assay [8] was above 100 µM throughout.
Consider `Cc1ccc2c(=O)cc(Cc3csc4ccccc34)[nH]c2n1`, for which the TGI in [1] was 73.2 µM; in assay [2], above 100 µM; in assay [3], 93.8 µM; in assay [5] it was above 100 µM; in assay [6] it was 30.9 µM; in assay [7], above 100 µM. In addition, the results for the TGI in [8] and in [9] were 62.1 µM and 32.4 µM, respectively.
Take `CCn1c(=O)c2c3ccc(OC)cc3[nH]c2c2ccc(OC)cc21`: the TGI in assay [1], in assay [2], in assay [3], in [5], in assay [6] and in [7] was above 100 µM in each case. Further, the TGI in assay [8] and in assay [9] was above 100 µM in each case.
In the case of `Cc1ccc(N=C2SC(=NN(C)C)SC2=Nc2ccc(C)cc2)cc1`, the TGI in [1], in assay [3], in [4], in assay [5], in assay [6] and in assay [7] was above 100 µM each time. Besides, the TGI in assay [8] and in assay [9] was above 100 µM in each case.
Take `COc1ccc(-c2nc(-c3cnccn3)n(Cc3ccccc3)n2)cc1`: the TGI in [1], in assay [2], in [3], in assay [4], in assay [5] and in assay [6] was above 100 µM in each case. The TGI in assay [7] and in assay [9] was above 100 µM each time.
With `N#CCc1nc2cc(C(F)(F)F)ccc2s1`, the TGI in assay [1], in assay [3], in [5], in [7], in [8] and in assay [9] was above 100 µM in each case.
As for `C[N+]1([O-])[C@H]2CC(OC(=O)[C@H](CO)c3ccccc3)C[C@H]1[C@H]1O[C@H]12` (stereo partly specified), the TGI in assay [1], in assay [2], in assay [3], in [5], in assay [6] and in assay [7] was above 100 µM each time. Besides, the TGI in assay [8] and in assay [9] was above 100 µM in each case.
For `O=C(/C=C/c1ccccc1)Oc1cccc(Br)c1`, the TGI in assay [1] was above 100 µM; in [2], above 100 µM; in assay [3], 68.3 µM; in [4], 52.1 µM; in [5], above 100 µM; in [6] it was above 100 µM. Besides, the TGI in [7] and in assay [9] was above 100 µM throughout.
As for `CN1C=COC1N=C1CCCCC1` (stereo unspecified), the TGI in assay [1], in assay [2], in assay [3], in [4], in assay [5] and in [6] was above 100 µM throughout. The TGI in [8] and in assay [9] was above 100 µM each time.
As to `O=S1(=O)OCCCOS(=O)(=O)C1(Br)Br`, the TGI in assay [1], in [2], in assay [3], in assay [4], in [5] and in assay [7] was above 100 µM each time. Further, the TGI in [8] and in assay [9] was above 100 µM in each case.
On to `C[C@@]12C[C@@H](c3ccccc3O1)N1Cc3ccccc3CSC1=N2`, for which the TGI in assay [1], in [2], in assay [3], in assay [5], in assay [6] and in [7] was above 100 µM throughout. Further, the TGI in assay [8] and in assay [9] was above 100 µM in each case.
Regarding `CC(C)(C)OC(=O)NC(CCCCNC(=O)CNC(=O)OCc1ccccc1)C(=O)NC(CCCCNC(=O)CNC(=O)OCc1ccccc1)C(=O)NC(CCCCNC(=O)CNC(=O)OCc1ccccc1)C(=O)NC(CCCCNC(=O)CNC(=O)OCc1ccccc1)C(=O)O` (stereo unspecified) (Boc-K([Gly-Cbz])K([Gly-Cbz])K([Gly-Cbz])K([Gly-Cbz])-OH; configuration not given here), the TGI in assay [1], in assay [2], in assay [4], in assay [5], in assay [6] and in assay [7] was above 100 µM in each case. In addition, the TGI in assay [8] and in assay [9] was above 100 µM each time.

Source of the values: PubChem BioAssay (NCI).
